Assay results taken from patent publication US9896423B2, “Deuterium substituted 1-[2-(2,4-dimethyl-phenylsulfanyl)-phenyl]piperazine compound or derivatives thereof, and pharmaceutical composition and use thereof” (Jiangsu Jibeier Pharmaceutical Co. Ltd., priority 2014, dated 2018).
Where “and” joins values, the source holds several entries; their conditions need not be identical. Identical values can stand only once. Like-named read-outs stand apart in the source and are kept apart here.

Assay: Pharmacokinetic test in rats, gavage administration
Assay type: in vivo, SD rats
Method: The preferred compound of the present disclosure was assessed in rats for its pharmacokinetic profile.
SD rats, male and female, weighing 150 to 250 g
Mobile phase: 10 mM ammonium formate aqueous solution:methanol=15:85
The ionization source was electrospray ionization source. The detection mode was positive mode. Multiple reaction monitoring (MRM) was used as the scanning mode. The ion reaction for the quantitative analysis was the following: m/z was 305.2\150.0 for XX, and 256.1\167.1 for diphenhydramine (the internal standard).
XX or YY was orally administered with single dose of 20 mg/kg to six SD rats, one half of which were male and the other half was female. XX or YY was dissolved in 10% hydroxypropyl-β-cyclodextrin. […]
After the blood collection, the tubes were immediately gently turned upside down at least five times to ensure sufficient mixing, and placed on ice. Heparin was added for anticoagulation. The samples were centrifuged at 8000 rpm for 5 min to separate serum from erythrocyte. The serum was transferred with a pipettor to 2 mL polypropylene (PP) tubes, which were marked with the name of the compound and the time points, and stored in a refrigerator at −40° C. before LC-MS analysis. Samples with high concentrations were diluted with rat blank plasma.
2.5 μL of Meth-H2O and 5 μL of the internal standard solution (20 ng/mL, IS) were added to 50 μL of the plasma. Subsequently, 150 μL of methanol was added to the mixture to precipitate protein and the samples were then centrifuged at 13000 rpm for 5 min. The upper organic phase was taken out, filtrated with a 0.22 μM microporous membrane, and 2 μL of the sample was injected for the LC-MS analysis.

Cc1ccc(Sc2ccccc2N2CCNCC2)c(C)c1 [YY, 1-[2-(2,4-dimethyl-phenylsulfanyl)-phenyl]piperazine]
Concentrations in Plasma of Rats after Oral Administration (20 mg/kg oral, 10 min (Table 5: 0.167 h) after administration, individual rats 1-6): 17.9 ng/mL and 9.42 ng/mL and 28.1 ng/mL and 14.3 ng/mL and 38.4 ng/mL and 6.11 ng/mL
Concentrations in Plasma of Rats after Oral Administration (20 mg/kg oral, 0.5 h, individual rats 1-6): 86.5 ng/mL and 38.1 ng/mL and 52.3 ng/mL and 49.7 ng/mL
Concentrations in Plasma of Rats after Oral Administration (20 mg/kg oral, 1 h, individual rats 1-6): 123 ng/mL and 65.5 ng/mL and 77.4 ng/mL and 81.1 ng/mL and 93.2 ng/mL and 55.6 ng/mL
Concentrations in Plasma of Rats after Oral Administration (20 mg/kg oral, 1.5 h, individual rats 1-6): 154 ng/mL and 85.2 ng/mL and 82.9 ng/mL and 89.2 ng/mL and 73.2 ng/mL and 54.9 ng/mL
Concentrations in Plasma of Rats after Oral Administration (20 mg/kg oral, 2 h, individual rats 1-6): 182 ng/mL and 68.3 ng/mL and 91.8 ng/mL and 81.9 ng/mL and 72 ng/mL and 56.4 ng/mL
Concentrations in Plasma of Rats after Oral Administration (20 mg/kg oral, 3 h, individual rats 1-6): 120 ng/mL and 48.2 ng/mL and 58.3 ng/mL and 55.9 ng/mL and 42.9 ng/mL and 34.2 ng/mL
Concentrations in Plasma of Rats after Oral Administration (20 mg/kg oral, 4 h, individual rats 1-6): 93.6 ng/mL and 46.9 ng/mL and 52.9 ng/mL and 55.2 ng/mL and 42.1 ng/mL and 29.9 ng/mL
Concentrations in Plasma of Rats after Oral Administration (20 mg/kg oral, 6 h, individual rats 1-6): 57.4 ng/mL and 37.7 ng/mL and 36.7 ng/mL and 33.5 ng/mL and 30.5 ng/mL and 22.4 ng/mL
Concentrations in Plasma of Rats after Oral Administration (20 mg/kg oral, 8 h, individual rats 1-6): 27.5 ng/mL and 16.7 ng/mL and 17.7 ng/mL and 16.3 ng/mL and 18.8 ng/mL and 11.3 ng/mL
Concentrations in Plasma of Rats after Oral Administration (20 mg/kg oral, 10 h, individual rats 1-6): 14.5 ng/mL and 8.39 ng/mL and 10.9 ng/mL and 8.32 ng/mL and 9.4 ng/mL and 7.24 ng/mL
Concentrations in Plasma of Rats after Oral Administration (20 mg/kg oral, 12 h, individual rats 1-6): 7.3 ng/mL and 4.87 ng/mL and 4.29 ng/mL and 7.01 ng/mL and 4.1 ng/mL and 3.17 ng/mL
Concentrations in Plasma of Rats after Oral Administration (20 mg/kg oral, 14 h, individual rats 1-6): 7.19 ng/mL and 2.5 ng/mL and 3.69 ng/mL and 4.35 ng/mL and 3.79 ng/mL and 2.95 ng/mL
Concentrations in Plasma of Rats after Oral Administration (20 mg/kg oral, 24 h, individual rats 1-6): 0.728 ng/mL and 0.431 ng/mL and 0.716 ng/mL and 0.374 ng/mL and 0.394 ng/mL and 1.21 ng/mL
MRT inf (both sexes, SD, rat, plasma, po, 20 mg/kg, rats, oral 20 mg/kg, individual rats 1-6, read-out: MRT0-∞): 4.49 h
half-life (both sexes, SD, rat, plasma, po, 20 mg/kg, rats, oral 20 mg/kg, individual rats 1-6, read-out: t1/2 (converted)): 3.05 h
AUC(0-t) (both sexes, SD, rat, plasma, po, 20 mg/kg, rats, oral 20 mg/kg, n = 6, read-out: AUC0-1, Mean ± SD): 489 ± 180 ng·h/mL
AUC(0-inf) (both sexes, SD, rat, plasma, po, 20 mg/kg, rats, oral 20 mg/kg, n = 6, read-out: AUC0-∞, Mean ± SD): 491 ± 181 ng·h/mL
Cmax (both sexes, SD, rat, plasma, po, 20 mg/kg, rats, oral 20 mg/kg, n = 6, read-out: Cmax, Mean ± SD): 99.6 ± 42.6 ng/mL
MRT inf (both sexes, SD, rat, plasma, po, 20 mg/kg, rats, oral 20 mg/kg, n = 6, read-out: MRT0-∞, Mean ± SD): 4.75 ± 0.31 h
half-life (both sexes, SD, rat, plasma, po, 20 mg/kg, rats, oral 20 mg/kg, n = 6, read-out: t1/2, Mean ± SD (converted)): 2.96 ± 0.43 h
concentration at 10 min (both sexes, Sprague-Dawley, rat, plasma, oral, 20 mg/kg, 20 mg/kg oral, 10 min (Table 5: 0.167 h), mean of 6 rats, read-out: Concentrations in Plasma of Rats after Oral Administration, Mean ± SD): 19 ± 12.2 ng/mL
concentration at 0.5 h (both sexes, Sprague-Dawley, rat, plasma, oral, 20 mg/kg, 20 mg/kg oral, 0.5 h, mean of 6 rats, read-out: Concentrations in Plasma of Rats after Oral Administration, Mean ± SD): 54.9 ± 16.8 ng/mL
concentration at 1 h (both sexes, Sprague-Dawley, rat, plasma, oral, 20 mg/kg, 20 mg/kg oral, 1 h, mean of 6 rats, read-out: Concentrations in Plasma of Rats after Oral Administration, Mean ± SD): 82.6 ± 23.6 ng/mL
concentration at 1.5 h (both sexes, Sprague-Dawley, rat, plasma, oral, 20 mg/kg, 20 mg/kg oral, 1.5 h, mean of 6 rats, read-out: Concentrations in Plasma of Rats after Oral Administration, Mean ± SD): 89.9 ± 33.7 ng/mL
